Experimental data as given in US20110136728A1, “METHODS OF INCREASING BONE FORMATION USING LEPTIN-RELATED PEPTIDES” (priority 2009, published 2011).
Non-standard residues stand in square brackets, D forms with d. Residues, ends and D or L forms follow the SMILES beside them.

System: ob/ob mouse model
Test: Earlier study of OB3 and D-amino acid-substituted OB3 analogs: body weight gain, food and water intake, blood glucose
Format: in vivo
From the text: Single-point D-amino acid substitution was used to study the structure-function relationships of each amino acid residue in OB3, and to increase its efficacy. The restricted domain represented by OB3 contains a functional epitope, which has the ability to mimic at least some of the effects of leptin on energy balance and glucose homeostasis.
The design of peptide ligands involved the introduction of conformational constraints into native sequences by techniques that include, but are not limited to, D-amino acid substitution or cyclization. (Hruby and Bonner, Methods Mol Biol. 35:201-40 (1994)). Systematic replacement of L-amino acids by their D-amino acid isoforms was used to determine the stereostructural requirements of specific residues in a peptide for peptide-receptor interaction, and to assess the contribution of certain secondary structural motifs, e.g., α-helix or β-turn, to the bioactivity of the peptide. (Hruby, Biopolymers 33(7):1073-82 (1993) and Hruby, Life Sci. 52(10):845-55 (1993)). This approach increased peptide resistance to enzymatic hydrolysis, and to enhance the properties of biologically active peptides, including receptor binding, functional potency, and duration of action. (See Fauchere et al., Adv. Drug Res., 23:127-139 (1992); Doherty et al., J. Med. Chem., 36:2585-2594 (1993); Kirby et al., J. Med. Chem., 36:3802-3808 (1993); Morita et al., FEBS Lett., 353:84-88 (1994)).
(See Rozhayskaya-Arena M, et al., Endocrinology 141:2501-2517 (2000); Grasso P et al., Regulatory Pep. 101:123-129 (2001)).

CC(C)C[C@@H](NC(=O)[C@H](CO)NC(=O)[C@H](CS)NC(=O)[C@@H](N)CO)C(=O)N1CCC[C@H]1C(=O)N[C@@H](CCC(N)=O)C(=O)N[C@H](C(N)=O)[C@@H](C)O [mouse [D-Leu-4]-OB3] (H-SCS[dL]PQT-NH2; N-terminus assumed)
effectiveness compared to the other D-amino acid-substituted analogs (compared to OB3, in most of the parameters measured): more effective than the other D-amino acid-substituted analogs | Water intake (mouse, in vivo): significantly reduced water intake | anorexigenic activity compared with OB3 (mouse, in vivo): greater anorexigenic activity than OB3 | antihyperglycemic effect and its time course (mouse, in vivo): lowered blood glucose to levels seen in nondiabetic wild type mice within two days of peptide treatment | potency in reducing body weight gain relative to native OB3 (mouse, in vivo): 2.6 fold
